Source: PubChem BioAssay AID179 (DTP/NCI, 2004)
Where “and” joins values, the source holds several entries; their conditions need not be identical. Equal entries are not always repeated. Calls of active or inactive are those of the source.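 The calls were made as follows: active = compounds giving half or more protection of infected cells from virus-caused growth loss, again on retest; inactive = the rest.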

System: CEM cells HIV-1 protection, formazan growth assay
Assay: NCI AIDS Antiviral Assay
Conditions: for IC50: measured here: growth of uninfected CEM cells
Procedure, shortened: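 Human CEM cells, uninfected and HIV-1-infected, exposed to five drug concentrations; growth measured by soluble formazan assay and scored as percent protection from infection, with protecting compounds retested.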

SMILES	EC50	IC50	outcome
Cc1cc(-c2ccc(C(=O)C(c3ccccc3)(c3ccccc3)c3ccccc3)[nH]2)on1	> 200 µM	18.6 µM	
C[C@]12CCC3(CC1C(=O)CC[C@@H]2OCc1ccccc1)OCCO3 (stereo partly specified)			active
O=C(CC1C(=O)Nc2ccccc2S1(=O)=O)Nc1ccc(Cl)cc1 (stereo unspecified)	> 5.5 µM	> 5.5 µM	
COC(=O)c1cc(C(=CCCCCO)c2cc(Cl)c(OC)c(C(=O)OC)c2)cc(Cl)c1OC	> 200 µM	23.4 µM	
O=C(O)CC(NC(=O)/C(=C/c1ccccc1O)NC(=O)c1ccccc1)C(=O)O (stereo unspecified)	> 200 µM	110 µM	
O=c1[nH]c(O)c(/C=N/C(=S)Nc2ccccc2)c(=O)[nH]1			inactive
CC12CCC3c4ccc(OS(=O)(=O)O)cc4CCC3C1CC(O)C2O (stereo unspecified)			inactive
COc1ccc(/C=c2\sc3n(c2=O)C(N)=C(C#N)C(c2ccc(OC)cc2)C=3c2nc3ccccc3[nH]2)cc1 (stereo unspecified)	> 7.08 µM	> 7.08 µM	
c1ccc2[nH]c(-c3nc4ccccc4s3)nc2c1	> 15.1 µM	5.37 µM	
CCC/C=C(/Br)[Si](C)(C)C	> 427 µM	372 µM	
COc1ccc(NC(=S)Nc2cc(C)ccn2)cc1	> 200 µM	> 200 µM	
O=c1[nH]n(Cc2ccccc2)c2ccc([N+](=O)[O-])cc12	> 200 µM	25.7 µM	
CCOC(OCC)N1C(=O)C2(C(OCC)OCC)CC3C(OC(=O)N3N)c3cccc1c32 (stereo unspecified)			inactive
CCOc1ccc(N2C(=O)/C(=C/c3ccc(N(CCC#N)CCC#N)cc3)N=C2c2cc([N+](=O)[O-])ccc2Cl)cc1	> 33.1 µM	21.4 µM	
CCOc1ccccc1N=Nc1ccc2oc(=O)c(C(=O)Nc3cccc(C)c3)cc2c1	> 43.7 µM	> 43.7 µM	
COC(=O)C(=O)C(C(=O)Nc1cccc(C)c1C)C1Sc2ccccc2NC1=O (stereo unspecified)	> 17.4 µM	16.6 µM	
N#C/C(=C/NC(=S)Nc1ccc(Cl)c(Cl)c1)C(N)=O	> 200 µM	38 µM	
O=C(Nc1cccc(C(F)(F)F)c1)C(=O)C(C(=O)c1ccc(Cl)c(Cl)c1)C1OC(=O)c2ccccc21 (stereo unspecified)	> 158 µM	13.8 µM	
Nc1cc(=O)[nH]c(SC2=NC(N)CC(O)C2)n1 (stereo unspecified)			inactive
CN(CCO)c1nc2c(c(=O)[nH]1)CCC2	> 240 µM	> 240 µM	
CN(C)c1ccc(/C=C(\C#N)c2ccccc2)cc1	> 5.89 µM		
CCN(CC)CCCNc1ccc([N+](=O)[O-])c2nc3ccc(OC)cc3c(N)c12	> 200 µM	0.776 µM	
O=[N+]([O-])c1ncn(C2OC(CO)C(O)C2O)c1S (stereo unspecified)	> 200 µM	> 200 µM	

SMILES	EC50	IC50	outcome
CC(C)(C)C1CCC2(CC1)CCN(N1CCCCCC1)CC2	> 100 µM	91.2 µM	
COc1ccc2c(ccc3nc(CCC(=O)O)n(C)c(=O)c32)c1	> 794 µM	229 µM	
COC(=O)c1cc(C(c2cc(C(=O)OC)c(O)cc2C)C(Cl)(Cl)Cl)c(C)cc1O	> 200 µM	5.75 µM	
Cc1ccc(C=C2C(=O)NC(=O)NC2=O)cc1	> 155 µM	> 155 µM	
COc1ccc(N2C(=O)/C(=C\c3cc(OC)c(OC)c(OC)c3)SC2c2ccccc2)cc1 (stereo unspecified)	> 200 µM	51.3 µM	
NC(=O)C(=O)N/N=C1\C(=O)N(c2ccc(Cl)cc2Cl)C(=O)C1C(=O)Nc1ccc(Cl)cc1Cl (stereo unspecified)	> 7.08 µM	> 7.08 µM	
COc1ccc(-c2c(O)c3cccc(-c4ccccc4)c3oc2=O)cc1	> 200 µM	93.3 µM	
COC1C2CC3C4(CCC5C6(C)CCCC53C(C14)N(C)C6)CC21CCC23C4C=C5C6=C(CCC5(CC42)C3O1)C1(C)CC(C6)CN(C)C1 (stereo unspecified)	0.38 µM	18.6 µM	
COc1cc(-c2ccc(N=Nc3cc(S(=O)(=O)O)c4ccccc4c3N)c(OC)c2)ccc1N=Nc1cc(S(=O)(=O)O)c2ccccc2c1N	13.2 µM	155 µM	
CCOC(=O)c1cc2c(nc1NCc1ccccc1)C(=O)CCCC2	> 200 µM	19.1 µM	
Cc1nnc2sc(N/N=C/c3ccccc3)nn12	> 200 µM	> 200 µM	
NC(N)=NS(=O)(=O)c1ccc(Nc2c3ccccc3nc3c(C(=O)NC(CO)(CO)CO)cccc23)cc1	> 200 µM	3.31 µM	
O=S(=O)(C1=CC(S(=O)(=O)c2ccccc2)CN(Cc2ccccc2)C1c1cccc2ccccc12)c1ccccc1 (stereo unspecified)			inactive
Clc1cccc(-c2ccc[nH]2)c1	> 200 µM	> 200 µM	
O=C1CCCc2cc3c(cc21)CCC3C(=O)O (stereo unspecified)			inactive
CN1CCC2(CC1)C(=NC1CCCCC1)NC(=O)N2c1ccccc1	> 200 µM	> 200 µM	
O=C(/C=C/c1ccccc1Cl)c1ccc(Cl)cc1Cl	> 3.31 µM	> 3.31 µM	
O=C(/C=C/C(=O)c1cccs1)c1cccs1	> 20 µM	1.1 µM	
Cc1ccc(C(=O)c2cccc(C)c2C(=O)O)c(C)c1	> 200 µM	> 200 µM	
COc1ccc(/C(C#N)=C/c2ccc(OC)c(OC)c2)cc1	> 200 µM	64.6 µM and > 33.9 µM	
Cc1cc(NC(=O)c2ccc(N=Nc3cc(S(=O)(=O)O)c4ccccc4c3O)cc2)ccc1N=Nc1ccc2cc(S(=O)(=O)O)cc(S(=O)(=O)O)c2c1			active
CCCCCCCCCCCC(=O)CC(=O)c1c(O)cccc1O	> 15.5 µM	> 15.5 µM	
Nc1ccc(Sc2nnc(N)s2)cc1	> 224 µM	> 224 µM	

SMILES	EC50	IC50	outcome
NS(=O)(=O)c1ccc(NC(=O)Nc2ccc(F)cc2)cc1	> 200 µM	74.1 µM	
COC(=O)c1c(C(=O)OC)c2c(C)nn3ccc1n23	> 955 µM	> 955 µM	
CC1(CCC#N)CCC(N)=CC1=O (stereo unspecified)	> 200 µM	> 200 µM	
COC(=O)C(CCc1ccccc1I)C1=CCC2(CC1)OCCO2 (stereo unspecified)	> 200 µM	38 µM	
N#C/C(N)=C(\C#N)N=C1OCC(O)C(O)C1O (stereo unspecified)			inactive
c1ccc2nc3c(nc2c1)[nH]c1ccccc13	> 12.3 µM	> 12.3 µM	
O=S(O)CCCCSSCCCCS(=O)(O)=S			inactive
CN(/N=C/c1cccs1)c1ccc([N+](=O)[O-])cc1[N+](=O)[O-]	> 200 µM	107 µM	
C#CCNC(Cc1ccccc1)C(=O)O (stereo unspecified)	> 200 µM	> 200 µM	
O=Cc1ccccc1CCn1c(=O)c2cc3c(=O)n(CCc4ccccc4C=O)c(=O)c3cc2c1=O	> 10.7 µM	> 10.7 µM	
Cc1cc2c(C(C)C)c(O)c(O)c(C=O)c2c(O)c1-c1c(C)cc2c(C(C)C)c(O)c(O)c(C=Nc3ccccc3SSc3ccccc3N)c2c1O	> 200 µM	24.5 µM	
CC1=N/C(=C\c2cccc3ccccc23)C(=O)O1	> 11.5 µM	> 11.5 µM	
CC(C)c1ccc(C=Nc2ccc(SSc3ccc(N=Cc4ccc(C(C)C)cc4)cc3)cc2)cc1	> 200 µM	29.5 µM	
CC(=O)NC(CS/N=N/c1nc[nH]c1C(N)=O)C(=O)O (stereo unspecified)	> 200 µM	0.38 µM	
CCSc1nc(=S)n(-c2ccccc2)c(C)c1C(C)=O	> 200 µM	> 200 µM	
N#Cc1c(-c2ccccc2)cn2c1[nH]c(=O)c1ccccc12	> 200 µM	30.2 µM	
N#Cc1cccc(C=NC23CC4CC(CC(C4)C2)C3)c1	> 97.7 µM	74.1 µM	
O=C(/C=C/c1ccccc1)Oc1ccc(C(=O)/C=C/c2ccccc2)cc1	> 151 µM	6.76 µM	
CC1Cc2c(Br)nc(N)nc2NC1=O (stereo unspecified)	> 200 µM	> 200 µM	
Cc1cc(N(CCC#N)CCC#N)ccc1/C=C(\NC(=O)/C=C/c1ccccc1)NC(=O)Nc1ccc(Cl)cc1			inactive
C1CN(CCSSCCN2CCOCC2)CCO1	> 200 µM	166 µM	
COc1ccc(NC(=O)CC/C(CC(=O)c2ccco2)=N/NC(=O)C(N)=O)cc1	> 25.1 µM	> 25.1 µM	
COc1ccc(SCc2ccc(C(=O)O)cc2)cc1	> 26.3 µM	> 26.3 µM	

SMILES	EC50	IC50	outcome
CCOC(OC1=C(C#N)CCCC1)C(C)[Se]c1ccccc1 (stereo unspecified)	> 20 µM	> 20 µM	
Cc1ccc(-n2c(Cn3nnc(-c4cccnc4)n3)nn(C3OC(COC(=O)c4ccccc4)C(OC(=O)c4ccccc4)C3OC(=O)c3ccccc3)c2=S)cc1 (stereo unspecified)	> 200 µM	> 200 µM	
COc1cc2c(cc1OC)C1c3ccccc3CCCN1CC2 (stereo unspecified)	> 200 µM	123 µM	
C=C1c2nc3ccccc3n2C=C(c2ccc(OC)cc2)N1c1ccccc1	> 200 µM	3.8 µM	
CC(=O)NCCSSCCCCS(=O)O	> 200 µM	3.16 µM	
NCCc1cc2c3c(c1)CCCN3CCC2	> 200 µM	11.2 µM	
CC1(C)OP(=O)(O)C=C1[Se]c1ccccc1	> 324 µM	> 324 µM	
COc1c(-c2ccccc2)oc2c(ccc3occc32)c1=O	> 95.5 µM	> 95.5 µM	
O=C(Nc1ccc(-c2cccs2)oc1=O)c1cnccn1	> 151 µM	> 151 µM	
CC(NS(=O)(=O)c1ccccc1)C(=O)O (stereo unspecified)			inactive
Cc1ccc(-c2n[nH]c(=O)n2N)cc1	> 200 µM	> 200 µM	
CCOC(=O)/C(C#N)=C1/Sc2c(ncn(/N=C/c3ccc(OC)cc3)c2=O)N1c1ccccc1	> 7.94 µM	> 7.94 µM	
O=C(O)c1[nH]c(C(=O)O)c(CC(F)(F)C(F)(F)C(F)(F)F)c1CC(F)(F)C(F)(F)C(F)(F)F			inactive
c1ccc(Oc2ncnc3ccccc23)cc1	> 200 µM	63.1 µM	
O=C(CC/C(CC(=O)c1ccc(Br)cc1)=N\O)Nc1ccc(Cl)c(Cl)c1	> 79.4 µM	16.2 µM	
CCOC(=O)C(C#N)C(C)CC (stereo unspecified)	> 200 µM	> 200 µM	
NC(=S)N/N=C1\CCCC\C1=C/c1ccccc1	> 138 µM	112 µM	
COC(=O)c1cc(C(=CCl)c2cc(C(=O)OC)c(OC)c(Br)c2C)c(C)c(Br)c1OC	> 200 µM	6.46 µM	
CC1(C)CNC[C@@](C)(O)C(=O)[N-]C(C)(C)CNC[C@](C)(O)C(=O)[N-]1.[Ni+2]	> 200 µM	120 µM	
CC(=O)OC12CCCC(=O)C1C1CC/C=C\CCC12 (stereo unspecified)	> 170 µM	105 µM	
CN(C)c1ccc(/C=C(\C#N)c2cccc(Br)c2)cc1	> 200 µM	0.0631 µM	
